The text below walks through data of article PMC5218480 (PLoS ONE, 2017).

Molecules are shown by their SMILES.

The subject of this test is MV-4-11 cells. Put plainly: Gene expression microarray analysis (Affymetrix PrimeView) and GSEA. It counts as cell-based, human. Details: RFU PODN (11730768_x_at) / Fold change /veh PODN (11730768_x_at) / RFU LINC00158 (11744669_a_at) / Fold change /veh LINC00158 (11744669_a_at) / RFU DUSP10 (11751237_a_at) / Fold change /veh DUSP10 (11751237_a_at) / RFU ID3 (11757404_x_at) / Fold change /veh ID3 (11757404_x_at) / RFU PLEKHG5 (11737974_s_at) / Fold change /veh PLEKHG5 (11737974_s_at) / RFU LRRC4B (11730491_at) / Fold change /veh LRRC4B (11730491_at) / RFU GIMAP4 (11747438_a_at) / Fold change /veh GIMAP4 (11747438_a_at) / RFU KRT8 (11758183_x_at) / Fold change /veh KRT8 (11758183_x_at) / RFU CNN1 (11734310_a_at) / Fold change /veh CNN1 (11734310_a_at) / RFU VPS37D (11726825_at) / Fold change /veh VPS37D (11726825_at) / RFU C10orf10 (11716522_x_at) / Fold change /veh C10orf10 (11716522_x_at) / RFU KIR2DL2 /// KIR2DL4 /// KIR2DL5A /// KIR2DL5B /// KIR2DS1 /// KIR2DS2 /// KIR2DS3 /// KIR2DS4 /// KIR3DL3 /// KIR3DL3 /// KIR3DS1 (11738374_at) / Fold change /veh KIR2DL2 /// KIR2DL4 /// KIR2DL5A /// KIR2DL5B /// KIR2DS1 /// KIR2DS2 /// KIR2DS3 /// KIR2DS4 /// KIR3DL3 /// KIR3DL3 /// KIR3DS1 (11738374_at) / RFU C1QL1 (11718748_at) / Fold change /veh C1QL1 (11718748_at) / RFU TMPRSS4 (11747572_a_at) / Fold change /veh TMPRSS4 (11747572_a_at) / RFU HAMP (11756126_x_at) / Fold change /veh HAMP (11756126_x_at) / RFU RNFT2 (11725882_a_at) / Fold change /veh RNFT2 (11725882_a_at) / RFU NR4A2 (11747474_a_at) / Fold change /veh NR4A2 (11747474_a_at) / RFU ABCC12 (11746883_a_at) / Fold change /veh ABCC12 (11746883_a_at) / RFU TMEM136 (11760407_x_at) / Fold change /veh TMEM136 (11760407_x_at) / RFU CLDN22 /// WWC2 (11732394_at) / Fold change /veh CLDN22 /// WWC2 (11732394_at) / RFU HLA-DPB1 (11760878_x_at) / Fold change /veh HLA-DPB1 (11760878_x_at) / RFU SPINT1 (11716480_a_at) / Fold change /veh SPINT1 (11716480_a_at) / RFU GAP43 (11754022_s_at) / Fold change /veh GAP43 (11754022_s_at) / RFU A4GNT (11735810_at) / Fold change /veh A4GNT (11735810_at) / RFU PRB3 (11715151_x_at) / Fold change /veh PRB3 (11715151_x_at) / RFU TUBB4B (11761932_at) / Fold change /veh TUBB4B (11761932_at) / RFU CAPN14 (11732068_a_at) / Fold change /veh CAPN14 (11732068_a_at) / RFU TMCC2 (11721928_a_at) / Fold change /veh TMCC2 (11721928_a_at) / RFU IRGQ (11745062_a_at) / Fold change /veh IRGQ (11745062_a_at) / RFU FAM174B (11720279_a_at) / Fold change /veh FAM174B (11720279_a_at) / RFU TMPRSS4 (11748680_a_at) / Fold change /veh TMPRSS4 (11748680_a_at) / RFU FAM212B (11763350_a_at) / Fold change /veh FAM212B (11763350_a_at) / RFU PLEKHG5 (11743358_a_at) / Fold change /veh PLEKHG5 (11743358_a_at) / RFU ZSCAN30 (11745921_a_at) / Fold change /veh ZSCAN30 (11745921_a_at) / RFU CMKLR1 (11741424_a_at) / Fold change /veh CMKLR1 (11741424_a_at) / RFU LOC101060620 /// MAPK8IP1 (11723275_at) / Fold change /veh LOC101060620 /// MAPK8IP1 (11723275_at) / RFU SPTSSB (11747773_x_at) / Fold change /veh SPTSSB (11747773_x_at) / RFU PRSS12 (11739890_at) / Fold change /veh PRSS12 (11739890_at) / RFU BIN1 (11741810_x_at) / Fold change /veh BIN1 (11741810_x_at) / RFU WNT11 (11732464_a_at) / Fold change /veh WNT11 (11732464_a_at) / RFU C10orf10 (11716521_a_at) / Fold change /veh C10orf10 (11716521_a_at) / RFU C5orf56 (11738089_at) / Fold change /veh C5orf56 (11738089_at) / RFU CYB561 (11721691_x_at) / Fold change /veh CYB561 (11721691_x_at) / RFU ANKRD19P (11752326_a_at) / Fold change /veh ANKRD19P (11752326_a_at) / RFU OR2T12 /// OR2T33 /// OR2T8 (11738714_s_at) / Fold change /veh OR2T12 /// OR2T33 /// OR2T8 (11738714_s_at) / RFU VCAN (11748164_a_at) / Fold change /veh VCAN (11748164_a_at) / RFU JSRP1 (11732532_at) / Fold change /veh JSRP1 (11732532_at) / RFU KRTAP10-11 (11738290_x_at) / Fold change /veh KRTAP10-11 (11738290_x_at) / RFU MYO3A (11730013_a_at) / Fold change /veh MYO3A (11730013_a_at) / RFU EBF3 (11725865_a_at) / Fold change /veh EBF3 (11725865_a_at) / RFU CAMK2N1 (11719241_x_at) / Fold change /veh CAMK2N1 (11719241_x_at) / RFU C5orf56 (11738088_a_at) / Fold change /veh C5orf56 (11738088_a_at) / RFU OLFML3 (11715873_a_at) / Fold change /veh OLFML3 (11715873_a_at) / RFU LOC100653217 /// NTM (11731650_a_at) / Fold change /veh LOC100653217 /// NTM (11731650_a_at) / RFU MAPK11 (11762145_a_at) / Fold change /veh MAPK11 (11762145_a_at) / RFU FIZ1 (11724087_x_at) / Fold change /veh FIZ1 (11724087_x_at) / RFU OASL (11726364_x_at) / Fold change /veh OASL (11726364_x_at) / RFU SOX15 (11748057_x_at) / Fold change /veh SOX15 (11748057_x_at) / RFU CD79A (11719716_a_at) / Fold change /veh CD79A (11719716_a_at) / RFU HIST1H1D (11736915_at) / Fold change /veh HIST1H1D (11736915_at) / RFU CASKIN2 (11723855_a_at) / Fold change /veh CASKIN2 (11723855_a_at) / RFU LOC730098 (11760151_x_at) / Fold change /veh LOC730098 (11760151_x_at) / RFU OR4N2 (11742367_at) / Fold change /veh OR4N2 (11742367_at) / RFU PRRT2 (11749266_a_at) / Fold change /veh PRRT2 (11749266_a_at) / RFU SNX32 (11753110_a_at) / Fold change /veh SNX32 (11753110_a_at) / RFU CDHR5 (11726645_a_at) / Fold change /veh CDHR5 (11726645_a_at) / RFU RCAN1 (11760418_a_at) / Fold change /veh RCAN1 (11760418_a_at) / RFU FAM167A (11723789_a_at) / Fold change /veh FAM167A (11723789_a_at) / RFU FAM26E (11764081_at) / Fold change /veh FAM26E (11764081_at) / RFU ISYNA1 (11749810_s_at) / Fold change /veh ISYNA1 (11749810_s_at) / RFU ACY1 (11761880_at) / Fold change /veh ACY1 (11761880_at) / RFU 11764098_at / Fold change /veh 11764098_at / RFU SAMD14 (11745864_x_at) / Fold change /veh SAMD14 (11745864_x_at) / RFU NPB (11741838_a_at) / Fold change /veh NPB (11741838_a_at) / RFU TMPRSS6 (11731388_a_at) / Fold change /veh TMPRSS6 (11731388_a_at) / RFU KRTAP10-2 (11738614_at) / Fold change /veh KRTAP10-2 (11738614_at) / RFU ARHGAP8 /// PRR5-ARHGAP8 (11727945_x_at) / Fold change /veh ARHGAP8 /// PRR5-ARHGAP8 (11727945_x_at) / RFU KRTAP5-7 /// NADSYN1 (11734609_at) / Fold change /veh KRTAP5-7 /// NADSYN1 (11734609_at) / RFU RASL12 (11751679_a_at) / Fold change /veh RASL12 (11751679_a_at) / RFU CDKN2B (11736163_a_at) / Fold change /veh CDKN2B (11736163_a_at) / RFU PRF1 (11729649_at) / Fold change /veh PRF1 (11729649_at) / RFU, ZNF638 /// ZNF638-IT1 / Fold change vs veh, ZNF638 /// ZNF638-IT1 / RFU, PANK3 / Fold change vs veh, PANK3 / RFU, SH3YL1 / Fold change vs veh, SH3YL1 / RFU, ZEB2 / Fold change vs veh, ZEB2 / RFU, NRIP1 / Fold change vs veh, NRIP1 / RFU, PTTG1IP / Fold change vs veh, PTTG1IP / RFU, CAPN2 / Fold change vs veh, CAPN2 / RFU, MED14 / Fold change vs veh, MED14 / RFU, SNORA58 / Fold change vs veh, SNORA58 / RFU, C1orf63 / Fold change vs veh, C1orf63 / RFU, LRRFIP1 / Fold change vs veh, LRRFIP1 / RFU, NDUFAF7 / Fold change vs veh, NDUFAF7 / RFU, SLC12A2 / Fold change vs veh, SLC12A2 / RFU, IBTK / Fold change vs veh, IBTK / RFU, ESF1 / Fold change vs veh, ESF1 / Fold change vs veh, TMEM50B / RFU, TAOK1 / Fold change vs veh, TAOK1 / RFU, ACBD3 / Fold change vs veh, ACBD3 / RFU, TMA16 / Fold change vs veh, TMA16 / RFU, RWDD3 / Fold change vs veh, RWDD3 / RFU, BCAT1 / Fold change vs veh, BCAT1 / RFU, EDEM3 / Fold change vs veh, EDEM3 / RFU, TMEM33 / Fold change vs veh, TMEM33 / RFU, WDR75 / Fold change vs veh, WDR75 / RFU, AHCTF1 / Fold change vs veh, AHCTF1 / RFU, TFRC / Fold change vs veh, TFRC / RFU, ZDHHC17 / Fold change vs veh, ZDHHC17 / RFU, NOM1 / Fold change vs veh, NOM1 / RFU, ARL8B / Fold change vs veh, ARL8B / RFU, ZBTB11 / Fold change vs veh, ZBTB11 / RFU, TAMM41 / Fold change vs veh, TAMM41 / RFU, KIAA1704 /// LOC100996395 / Fold change vs veh, KIAA1704 /// LOC100996395 / RFU, ING1 / Fold change vs veh, ING1 / RFU, TRMT61B / Fold change vs veh, TRMT61B / RFU, FUBP3 / Fold change vs veh, FUBP3 / RFU, TP53 / Fold change vs veh, TP53 / RFU, TNKS2 / Fold change vs veh, TNKS2 / RFU, ZFP14 / Fold change vs veh, ZFP14 / RFU, ACTR2 / Fold change vs veh, ACTR2 / RFU, PPP3R1 / Fold change vs veh, PPP3R1 / RFU, PIK3R1 / Fold change vs veh, PIK3R1 / RFU, HNRNPA1 / Fold change vs veh, HNRNPA1 / RFU, RNF170 / Fold change vs veh, RNF170 / RFU, ZNF28 / Fold change vs veh, ZNF28 / RFU, RNGTT / Fold change vs veh, RNGTT / RFU, OGT / Fold change vs veh, OGT / RFU, BRD1 / Fold change vs veh, BRD1 / RFU, MARS / Fold change vs veh, MARS / RFU, ZNF655 / Fold change vs veh, ZNF655 / RFU, FAHD1 / Fold change vs veh, FAHD1 / RFU, BDP1 / Fold change vs veh, BDP1 / RFU, LRRCC1 / Fold change vs veh, LRRCC1 / RFU, ARID1A / Fold change vs veh, ARID1A / RFU, ZNF146 / Fold change vs veh, ZNF146 / RFU, ZNF330 / Fold change vs veh, ZNF330 / RFU, GPN3 / Fold change vs veh, GPN3 / RFU, C9orf123 / Fold change vs veh, C9orf123 / RFU, N4BP2L2 / Fold change vs veh, N4BP2L2 / RFU, ARFIP1 / Fold change vs veh, ARFIP1 / RFU, FAM179B / Fold change vs veh, FAM179B / RFU, BCL10 / Fold change vs veh, BCL10 / RFU, UHRF1BP1L / Fold change vs veh, UHRF1BP1L / RFU, BET1 / Fold change vs veh, BET1 / RFU, CNOT2 / Fold change vs veh, CNOT2 / RFU, ZNF268 / Fold change vs veh, ZNF268 / Fold change vs veh, ZNF507 / RFU, DGCR2 / Fold change vs veh, DGCR2 / RFU, WDSUB1 / Fold change vs veh, WDSUB1 / Fold change vs veh, HSP90B1 /// MIR3652 / RFU, ADSS / Fold change vs veh, ADSS / RFU, GK / Fold change vs veh, GK / RFU, ZNF148 / Fold change vs veh, ZNF148 / RFU, TAF9 / Fold change vs veh, TAF9 / RFU, SLC1A5 / Fold change vs veh, SLC1A5 / RFU, SLMO2 / Fold change vs veh, SLMO2 / RFU, ABCC4 / Fold change vs veh, ABCC4 / RFU, LOC101060439 /// RAP1B / Fold change vs veh, LOC101060439 /// RAP1B / RFU, RFX7 / Fold change vs veh, RFX7 / RFU, GTPBP10 / Fold change vs veh, GTPBP10 / RFU, CNEP1R1 / Fold change vs veh, CNEP1R1 / RFU, BIVM-ERCC5 /// ERCC5 / Fold change vs veh, BIVM-ERCC5 /// ERCC5 / RFU, ILF3 / Fold change vs veh, ILF3 / RFU 11762660_at / Fold change /veh 11762660_at / RFU VCAN (11757783_s_at) / Fold change /veh VCAN (11757783_s_at) / RFU DDX43 (11728927_at) / Fold change /veh DDX43 (11728927_at) / RFU KRT8 (11758188_x_at) / Fold change /veh KRT8 (11758188_x_at) / RFU NKD1 (11759106_at) / Fold change /veh NKD1 (11759106_at) / RFU SRD5A1 (11742802_a_at) / Fold change /veh SRD5A1 (11742802_a_at) / RFU TPSAB1 /// TPSB2 (11721975_s_at) / Fold change /veh TPSAB1 /// TPSB2 (11721975_s_at) / RFU GSTM3 (11746129_a_at) / Fold change /veh GSTM3 (11746129_a_at) / RFU IL23R (11737362_x_at) / Fold change /veh IL23R (11737362_x_at) / RFU TMEM51 (11727254_a_at) / Fold change /veh TMEM51 (11727254_a_at) / RFU PIWIL2 (11732686_x_at) / Fold change /veh PIWIL2 (11732686_x_at) / RFU ORM1 (11744905_x_at) / Fold change /veh ORM1 (11744905_x_at) / RFU CCDC152 (11743942_at) / Fold change /veh CCDC152 (11743942_at) / RFU ECM1 (11717891_a_at) / Fold change /veh ECM1 (11717891_a_at) / RFU IL23R (11748794_a_at) / Fold change /veh IL23R (11748794_a_at) / RFU TNFAIP8L3 (11732012_x_at) / Fold change /veh TNFAIP8L3 (11732012_x_at) / RFU MBOAT4 (11741988_at) / Fold change /veh MBOAT4 (11741988_at) / RFU 11764193_at / Fold change /veh 11764193_at / RFU TMEM53 (11763286_at) / Fold change /veh TMEM53 (11763286_at) / RFU MAGEB2 (11727129_at) / Fold change /veh MAGEB2 (11727129_at) / RFU TMEM200A (11744735_a_at) / Fold change /veh TMEM200A (11744735_a_at) / RFU CCDC152 (11751479_a_at) / Fold change /veh CCDC152 (11751479_a_at) / RFU FAM211A (11726209_a_at) / Fold change /veh FAM211A (11726209_a_at) / RFU RGS16 (11746705_a_at) / Fold change /veh RGS16 (11746705_a_at) / RFU VCAN (11755009_s_at) / Fold change /veh VCAN (11755009_s_at) / RFU RHOB (11743442_s_at) / Fold change /veh RHOB (11743442_s_at) / RFU RGS16 (11720943_a_at) / Fold change /veh RGS16 (11720943_a_at) / RFU RGS16 (11720944_at) / Fold change /veh RGS16 (11720944_at) / RFU, VPS4B / Fold change vs veh, VPS4B / RFU, CREB1 / Fold change vs veh, CREB1 / RFU, DNAJC13 / Fold change vs veh, DNAJC13 / RFU, GNAQ / Fold change vs veh, GNAQ / RFU, CDK5R1 / Fold change vs veh, CDK5R1 / RFU, ZRANB3 / Fold change vs veh, ZRANB3 / RFU, CUL4A / Fold change vs veh, CUL4A / RFU, CCNY / Fold change vs veh, CCNY / RFU, UFL1 / Fold change vs veh, UFL1 / RFU, COG3 / Fold change vs veh, COG3 / RFU, DIAPH2 / Fold change vs veh, DIAPH2 / RFU, SKA2 / Fold change vs veh, SKA2 / RFU, AFF3 / Fold change vs veh, AFF3 / RFU, LMF1 / Fold change vs veh, LMF1 / RFU, IPO11 / Fold change vs veh, IPO11 / RFU, DFFB / Fold change vs veh, DFFB / RFU, FOXP1 / Fold change vs veh, FOXP1 / RFU, CARD8 / Fold change vs veh, CARD8 / RFU, STRN3 / Fold change vs veh, STRN3 / RFU, ADK / Fold change vs veh, ADK / RFU, RASSF2 / Fold change vs veh, RASSF2 / RFU, WIPF1 / Fold change vs veh, WIPF1 / RFU, LARP1B / Fold change vs veh, LARP1B / RFU, RASA1 / Fold change vs veh, RASA1 / RFU, RB1 / Fold change vs veh, RB1 / RFU, PPFIA1 / Fold change vs veh, PPFIA1 / RFU, MAT2A / Fold change vs veh, MAT2A / RFU, CCT5 / Fold change vs veh, CCT5 / RFU, WDR92 / Fold change vs veh, WDR92 / RFU, CUX1 / Fold change vs veh, CUX1 / RFU, TTC7A / Fold change vs veh, TTC7A / RFU, TMEM135 / Fold change vs veh, TMEM135 / RFU, DEPTOR / Fold change vs veh, DEPTOR / RFU, CPM / Fold change vs veh, CPM / RFU, DNAJB6 / Fold change vs veh, DNAJB6 / RFU, CACNA2D3 / Fold change vs veh, CACNA2D3 / RFU, DTX4 / Fold change vs veh, DTX4 / RFU, TFCP2 / Fold change vs veh, TFCP2 / RFU, GMCL1 /// GMCL1P1 / Fold change vs veh, GMCL1 /// GMCL1P1 / RFU, AEBP2 / Fold change vs veh, AEBP2 / RFU, SNHG1 /// SNORD22 /// SNORD25 /// SNORD26 /// SNORD27 /// SNORD28 /// SNORD29 /// SNORD31 / Fold change vs veh, SNHG1 /// SNORD22 /// SNORD25 /// SNORD26 /// SNORD27 /// SNORD28 /// SNORD29 /// SNORD31 / Fold change (Aza/veh), C12orf56 (ProbeSet 11735607_a_at) / Fold change (ACY-1035/veh), C12orf56 (ProbeSet 11735607_a_at) / Fold change (Aza/veh), FGFR1OP (ProbeSet 11751329_s_at) / Fold change (ACY-1035/veh), FGFR1OP (ProbeSet 11751329_s_at) / Fold change (Aza/veh), VPS36 (ProbeSet 11739960_a_at) / Fold change (ACY-1035/veh), VPS36 (ProbeSet 11739960_a_at) / RFU SYPL1 (11715823_x_at) / Fold change /veh SYPL1 (11715823_x_at) / RFU IGFBP7 (11715501_s_at) / Fold change /veh IGFBP7 (11715501_s_at) / RFU REEP3 (11722064_at) / Fold change /veh REEP3 (11722064_at) / RFU IGLL1 (11728026_x_at) / Fold change /veh IGLL1 (11728026_x_at): dose or concentration left out as unconfirmed. The settings on record: ProbeSet 11757113_a_at; LIST D.

In the case of `Nc1ccc(-c2cccs2)cc1NC(=O)c1ccc2c(c1)cc(C1CC1)n2CCN1CCOCC1` [ACY-1035], the “RFU, SNHG1 /// SNORD22 /// SNORD25 /// SNORD26 /// SNORD27 /// SNORD28 /// SNORD29 /// SNORD31” value is on record as 319.01 RFU.
